Data as given in patent publication US10556926B2, “Synthetic artificial peptides with antimicrobial effect” (priority 2014, dated 2020).
No end group written: not given here.

Legend:
human cell line U937 = experiment: Mixed culture experiment (bacterially contaminated cell culture), eukaryotic cells; format: cell-based; conditions: 25 and 50 μM peptide, two hours, with S. xylosus
Description: Destruction of the bacteria membranes by the antimicrobial peptides was investigated in a flow cytometric method with the help of a living/dead staining method in combination with an internal calibration and counting system. For this purpose, SYBR Green I (Sigma-Aldrich) was used as total staining and propidium iodide (Sigma-Aldrich) was used as contrast staining for membrane-damaged bacteria. […] The flow analysis was carried out on a Cytomics FC500 Instrument (Beckmann Coulter, Munich, Germany) equipped with an argon laser (488 nm) and the corresponding emission filters for SYBR Green I (525 nm) and propidium iodide (620 nm). […] Then, the mixture was incubated for 10 min in the dark at room temperature and then measured by flow cytometry. The number of events in each gate was captured and evaluated using the CXP Analyses 2.2 Software. The total number of living and dead bacteria was calculated. […]
The ability of the antimicrobial peptides to be used as a therapeutic active ingredient was investigated by reference to its selective antimicrobial properties in model mixed culture experiments. […] Then, the mixed cell cultures were stained and measured by flow cytometry as described in example 3, the measurement scale being adapted to the measurement of the larger eukaryotic cells.

Staphylococcus xylosus = conditions: 18 h
Description: (§1) The minimum inhibitory concentration (MIC) of the peptides was carried out by way of example against gram(−) E. coli DH5α (and gram(+) Staphylococcus xylosus (both Deutsche Sammlung von Mikroorganismen and Zellkulturen, DSMZ) in a standardized microdilution method according to the general guidelines of the CLSI (Clinical and Laboratory Standards Institute 2006) and EUCAST (European Committee for Antimicrobial Susceptibility Testing of the European Society of Clinical Microbiology and Infectious Diseases 2003) with slight adaptations to the investigation of cationic antimicrobial peptides (Wiegand et al. 2008). The bacteria cells were cultivated in Mueller-Hinton-Boullion (MHB) to an optical density of 0.4 to 0.6 at 600 nm wavelength, corresponding to about 4·10^8 bacteria per ml. Then, the bacteria cultures were diluted to a bacteria concentration of about 1·10^5 bacteria per ml in sterile MHB. Using the peptides, series of 2-fold dilutions starting at 128 μM to the smallest dilution of 0.5 μM in MHB were prepared. The peptide dilutions were mixed with the dilute bacteria cultures in a […] in the chambers of a 96-well polypropylene microtiter plate (Starlab, Hamburg, Germany), so that the peptides were present in an end concentration between 64 μM and 0.25 μM at a bacteria concentration of 5·10^4 bacteria/ml. Sterile MHB served as negative control, and the positive control used as the corresponding bacteria concentration in MHB without the addition of peptide. The microtiter plates were incubated for 18 hours at 37° C. with shaking at 120 rpm in a climatically controlled chamber. After the incubation, the bacteria concentration was determined by renewed absorption measurement at a wavelength of 600 nm.

E. coli DH5α = conditions: DH5α, 18 h
Description: as §1

[1] = test system: human histiocytic lymphoma cell line U937; experiment: Long-term growth inhibition, minimum toxic concentration (MTC)
Description: The cytotoxic potential of the antimicrobial peptides was determined by way of example by reference to the human histiocytic lymphoma cell line U937 (DSMZ). The influence of the peptides on the permeability of the cell membrane and their longer-term growth-inhibiting effect was investigated. 15 ml of RPMI 1640 medium with 2 mM glutamine and 10% FCS (Biochrom, Berlin, Germany) were inoculated with 1·10^5 cells per ml and cultivated for three days at 37° in T75 cell culture bottles (TPP, Trasadingen, Switzerland) with constant gassing with 5% CO2 in a climatically controlled chamber. The medium was admixed with 10 U/ml penicillin and […] streptomycin (both AppliChem, Darmstadt, Germany) to avoid bacterial contaminations, with no further antibiotics being added during the subsequent recultivation. Before each experiment, the cells were washed by centrifugation at 100 g for five minutes and subsequent resuspension in RPMI 1640 medium with 2 mM glutamine and 10% FCS in each case two times and adjusted to a concentration of 1·10^5 cells per ml. Finally, in each case 100 μl of the U937 cells were transferred to the reaction chambers of a sterile 96-well polypropylene microtiter plate and admixed with in each case 100 μl of a prediluted antimicrobial peptide in RPMI 1640 medium without antibiotic addition, such that end concentrations of in each case 5·10^4 cells per ml at peptide concentrations between 0.25 μM and 64 μM were present. The negative control used was samples without antimicrobial peptide, while Triton X-100 (AppliChem) was used in an end concentration of 5% as positive control for the permeabilization. The samples were cultivated for two hours at 37° C. and with continuous gassing with 5% CO2 in a climatically controlled chamber. Then, in each case 100 μl of each sample were removed and transferred to new sterile microtiter plates for determining the direct membrane damage. The remaining 100 μl of the samples were cultivated for at least four further days.
For this purpose, 10 μl of lysing solution were added to in each case 100 μl of cell suspension and incubated for 60 minutes at 37° C. Then, the cell culture supernatants were investigated as described above. The lowest peptide concentration at which complete suppression of the cell growth was established after four days was stipulated as the minimum toxic concentration (MTC).

[2] = test system: human histiocytic lymphoma cell line U937; experiment: Cytotoxicity, direct membrane damage (CytoTox 96), LD50; format: cell-based; conditions: U937, two hours at 37° C., 0.25-64 μM
Description: The direct membrane damage was investigated with the help of the CytoTox 96 Non-Radioactive Cytotoxicity Assay (Promega, Mannheim, Germany). For this purpose, the cells were sedimented at 100 g for ten minutes at 4° C., and 50 μl of the resulting culture supernatant were added to 50 μl of the CytoTox substrate mix. After an incubation time of 30 minutes in the dark at room temperature, 50 μl of the CytoTox stopping solution were added to the sample and the absorption was measured at 490 nm. To determine the LD50 value, the measurement value of the negative control was deducted from the absorption values and divided by the measurement value of the permeabilization control. The calculated values were plotted graphically against the peptide concentration and fitted using the Origin pro 8.1 G Software according to a sigmoidal model and the LD50 values were ascertained from this. The calculation was carried out analogously to example 5 by reference to the solution of equation 5.1 for the case y=50, where y in this case corresponds to the relative cytotoxicity in percent and x corresponds to the peptide concentration in μM. Representative graphical evaluations of LD50 values are shown in FIG. 6 by reference to the measurement results for the reference peptides BMAP-27, protamine and KL-helix, and also the peptide O1 according to the invention.

With KKKIIIIIIKKK [O1] the “Effect on eukaryotic U937 cells in mixed culture” value (human cell line U937) was “remain uninfluenced”, the “MIC S. xylosus” value (Staphylococcus xylosus) was 0.5 µM and the “MIC E. coli” value (E. coli DH5α) was 8 µM. For the same sequence, the “Toxicity MTC (minimum toxic concentration)” value [1] was over 64 µM and the “Toxicity LD50” value [2] was over 64 µM.
